PubChem BioAssay AID276 (DTP/NCI, 2004)
Several values for one entry are separate records, joined by “and”; a condition that tells them apart may be missing. Equal entries are not always repeated. Toxic doses and inconclusive results are not listed.

Tested on: B6C3F1 mice, Lewis lung carcinoma iv, survival T/C
Experiment: NCI In Vivo Anticancer Drug Screen. Data for tumor model Lewis Lung Carcinoma (intravenous) in B6C3F1 mice
Settings: endpoint: median survival time, schedule: Q01DX009 (ip), higher = longer survival
Method in brief: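 Transplantable tumor in mice; compound treated vs vehicle controls; read-out survival; value = treated/control (T/C).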

[1] = dose: 12.5 mg/kg/injection, vehicle: saline with Tween-80
[2] = dose: 25.0 mg/kg/injection, vehicle: saline with Tween-80
[3] = dose: 50.0 mg/kg/injection, vehicle: saline with Tween-80
[4] = dose: 50.0 mg/kg/injection, vehicle: DMSO
[5] = dose: 100.0 mg/kg/injection, vehicle: DMSO
[6] = dose: 200.0 mg/kg/injection, vehicle: DMSO
[7] = dose: 0.5 mg/kg/injection, vehicle: saline
[8] = dose: 1.0 mg/kg/injection, vehicle: saline
[9] = dose: 2.0 mg/kg/injection, vehicle: saline

SMILES: CCCCC(=O)OCC1OC(n2cnc3c(=S)nc[nH]c32)C(OC(=O)CCCC)C1OC(=O)CCCC (centres undefined)
- T/C [1]: 99 % of control
- T/C [2]: 100 % of control

SMILES: C=CC(C)(C)n1cc(C2=C(O)C(=O)C(c3cn(C(C)(C)C=C)c4ccccc34)=C(O)C2=O)c2ccccc21
- T/C (dose: 1.25 mg/kg/injection, vehicle: Klucel (hydroxypropylcellulose) (HPC)): 105 % of control
- T/C (dose: 2.5 mg/kg/injection, vehicle: Klucel (hydroxypropylcellulose) (HPC)): 110 % of control
- T/C (dose: 5.0 mg/kg/injection, vehicle: Klucel (hydroxypropylcellulose) (HPC)): 106 % of control
- T/C (dose: 10.0 mg/kg/injection, vehicle: Klucel (hydroxypropylcellulose) (HPC)): 100 % of control
- T/C (dose: 20.0 mg/kg/injection, vehicle: Klucel (hydroxypropylcellulose) (HPC)): 114 % of control
- T/C (dose: 40.0 mg/kg/injection, vehicle: Klucel (hydroxypropylcellulose) (HPC)): 119 % of control

SMILES: O=C(c1cccnc1)c1cc(-c2ccccn2)c(=O)n2ccccc12
- T/C [2]: 100 % of control
- T/C [3]: 96 % of control
- T/C (dose: 100.0 mg/kg/injection, vehicle: saline with Tween-80): 102 % of control
- T/C (dose: 200.0 mg/kg/injection, vehicle: saline with Tween-80): 105 % of control
- T/C (dose: 400.0 mg/kg/injection, vehicle: saline with Tween-80): 102 % of control

SMILES: N=c1ccc2nc3ccc(N)cc3sc-2c1
- T/C (dose: 6.25 mg/kg/injection, vehicle: water): 113 % of control
- T/C (dose: 12.5 mg/kg/injection, vehicle: water): 117 % of control
- T/C (dose: 25.0 mg/kg/injection, vehicle: water): 93 % of control

SMILES: O=C(Nc1ccccc1)c1c(O)[nH]c(=S)[nH]c1=O
- T/C [1]: 103 % of control
- T/C [2]: 106 % of control
- T/C [3]: 115 % of control

SMILES: O=C1c2ccccc2C(=O)c2c3c(cc(NCCNCCO)c21)N(CCO)CCN3
- T/C (dose: 12.5 mg/kg/injection, vehicle: DMSO): 101 % of control
- T/C (dose: 25.0 mg/kg/injection, vehicle: DMSO): 95 % of control
- T/C [4]: 104 % of control
- T/C [5]: 101 % of control
- T/C [6]: 96 % of control

SMILES: CCc1ccccc1N1CCN(C(=O)c2cc(OC)c(OC)c(OC)c2)CC1
- T/C (dose: 6.25 mg/kg/injection, vehicle: Klucel (hydroxypropylcellulose) (HPC)): 106 % of control
- T/C (dose: 12.5 mg/kg/injection, vehicle: Klucel (hydroxypropylcellulose) (HPC)): 103 % of control
- T/C (dose: 25.0 mg/kg/injection, vehicle: Klucel (hydroxypropylcellulose) (HPC)): 110 % of control
- T/C (dose: 50.0 mg/kg/injection, vehicle: Klucel (hydroxypropylcellulose) (HPC)): 110 % of control
- T/C (dose: 100.0 mg/kg/injection, vehicle: Klucel (hydroxypropylcellulose) (HPC)): 105 % of control

SMILES: CO[C@@]12[C@H](COC(N)=O)C3=C(C(=O)C(C)=C(N)C3=O)N1C[C@@H]1N[C@@H]12
- T/C (dose: 0.12 mg/kg/injection, vehicle: saline): 101 % of control
- T/C (dose: 0.25 mg/kg/injection, vehicle: saline): 103 % of control and 109 % of control
- T/C [7]: 118 % of control
- T/C [8]: 107 % of control

SMILES: CCCCNc1ccc2nnc(C)n2n1
- T/C [4]: 100 % of control
- T/C [5]: 100 % of control
- T/C [6]: 102 % of control

SMILES: COC(=O)C(N)Cc1ccc(O)c(O)c1 (centres undefined)
- T/C (dose: 12.5 mg/kg/injection, vehicle: saline): 107 % of control
- T/C (dose: 25.0 mg/kg/injection, vehicle: saline): 103 % of control
- T/C (dose: 50.0 mg/kg/injection, vehicle: saline): 101 % of control
- T/C (dose: 100.0 mg/kg/injection, vehicle: saline): 109 % of control
- T/C (dose: 200.0 mg/kg/injection, vehicle: saline): 92 % of control
- T/C (dose: 400.0 mg/kg/injection, vehicle: saline): 95 % of control
- T/C (dose: 800.0 mg/kg/injection, vehicle: saline): 95 % of control

SMILES: O=CC(O)C(O)C(O)C(O)C(=O)O.[NH-]C1CCCCC1[NH-].[Pt+2] (centres undefined)
- T/C (dose: 0.2 mg/kg/injection, vehicle: saline): 93 % of control
- T/C (dose: 0.39 mg/kg/injection, vehicle: saline): 94 % of control
- T/C (dose: 0.78 mg/kg/injection, vehicle: saline): 93 % of control
- T/C (dose: 1.56 mg/kg/injection, vehicle: saline): 106 % of control

SMILES: Nc1ccc(Cn2ccc3c4c(N)nc(N)nc4ccc32)cc1
- T/C (dose: 1.25 mg/kg/injection, vehicle: saline with Tween-80): 105 % of control
- T/C (dose: 2.5 mg/kg/injection, vehicle: saline with Tween-80): 107 % of control
- T/C (dose: 5.0 mg/kg/injection, vehicle: saline with Tween-80): 107 % of control
- T/C (dose: 10.0 mg/kg/injection, vehicle: saline with Tween-80): 108 % of control

SMILES: N[C@@H](Cc1ccc(N(CCCl)CCCl)cc1)C(=O)O
- T/C [7]: 102 % of control
- T/C [8]: 95 % of control
- T/C [9]: 99 % of control

SMILES: CCS/C(SC)=C(/c1ccccc1)[P+](c1ccccc1)(c1ccccc1)c1ccccc1
- T/C (dose: 0.12 mg/kg/injection, vehicle: Klucel (hydroxypropylcellulose) (HPC)): 106 % of control
- T/C (dose: 0.25 mg/kg/injection, vehicle: Klucel (hydroxypropylcellulose) (HPC)): 108 % of control
- T/C (dose: 0.5 mg/kg/injection, vehicle: Klucel (hydroxypropylcellulose) (HPC)): 101 % of control
- T/C (dose: 1.0 mg/kg/injection, vehicle: Klucel (hydroxypropylcellulose) (HPC)): 104 % of control
- T/C (dose: 1.5 mg/kg/injection, vehicle: Klucel (hydroxypropylcellulose) (HPC)): 100 % of control
- T/C (dose: 2.0 mg/kg/injection, vehicle: Klucel (hydroxypropylcellulose) (HPC)): 93 % of control

SMILES: Nc1nc(N)c2c(ccc3c2ccn3Cc2cccc([N+](=O)[O-])c2)n1
- T/C (dose: 1.56 mg/kg/injection, vehicle: saline with Tween-80): 98 % of control
- T/C (dose: 3.12 mg/kg/injection, vehicle: saline with Tween-80): 102 % of control
- T/C (dose: 6.25 mg/kg/injection, vehicle: saline with Tween-80): 103 % of control

SMILES: C[C@@]1(CO)[C@H](O)CC[C@@]2(C)[C@H]1CC[C@H]1C[C@@H]3C[C@@]12CC[C@@]3(O)COC(=O)CN
- T/C (dose: 0.2 mg/kg/injection, vehicle: saline + alcohol): 107 % of control
- T/C (dose: 0.4 mg/kg/injection, vehicle: saline + alcohol): 109 % of control
- T/C (dose: 0.8 mg/kg/injection, vehicle: saline + alcohol): 103 % of control
- T/C (dose: 1.6 mg/kg/injection, vehicle: saline + alcohol): 103 % of control
- T/C (dose: 12.5 micrograms/kg/injection, vehicle: saline + alcohol): 113 % of control
- T/C (dose: 25.0 micrograms/kg/injection, vehicle: saline + alcohol): 120 % of control
- T/C (dose: 50.0 micrograms/kg/injection, vehicle: saline + alcohol): 102 % of control
- T/C (dose: 100.0 micrograms/kg/injection, vehicle: saline + alcohol): 95 % of control
- T/C (dose: 200.0 micrograms/kg/injection, vehicle: saline + alcohol): 98 % of control

SMILES: Cc1c(N)nc([C@H](CC(N)=O)NC[C@H](N)C(N)=O)nc1C(=O)N[C@H](C(=O)N[C@H](C)[C@@H](O)CC(=O)N[C@H](C(=O)NC(O[C@@H]1O[C@@H](C)[C@@H](N)[C@@H](O)[C@H]1O)C(O)c1nc(-c2nc(C(=O)NCCCCN)cs2)cs1)[C@@H](C)O)[C@@H](O[C@@H]1O[C@@H](CO)[C@@H](O)[C@H](O)[C@@H]1O[C@H]1O[C@H](CO)[C@@H](O)[C@H](OC(N)=O)[C@@H]1O)c1c[nH]cn1 (some centres undefined)
- T/C [9]: 123 % of control
- T/C (dose: 8.0 mg/kg/injection, vehicle: saline): 176 % of control
